Source: paper PMC3395597, “Structural Basis for the ABO Blood-Group Dependence of Plasmodium falciparum Rosetting” (PLoS Pathogens, 2012)

Molecular target: Head(wt) (NTS-DBL1α1-CIDR1γ of PfEMP1-VarO) (Plasmodium falciparum, UniProt B7T1P0)
Assay: surface plasmon resonance (Biacore […]), immobilised trisaccharide-BSA
Type: binding
Conditions: labelled compound: multivalent BSA conjugate, 6 atom spacer, average 21 sugar residues per BSA; PBS, 25 °C; protein 10 nM-1 µM

Compound: C[C@@H]1O[C@@H](O[C@H]2C(O)O[C@H](CO)[C@H](O)[C@@H]2O[C@H]2O[C@H](CO)[C@H](O)[C@H](O)[C@H]2O)[C@@H](O)[C@H](O)[C@@H]1O (stereo partly shown) [blood group B trisaccharide]
- surface plasmon resonance (Biacore 2000), immobilised trisaccharide-BSA: Direct binding of the recombinant Head(wt)domain to the blood group A and B trisaccharides
